Reference: patent US9546145B2, “Combination therapy for the treatment of chronic renal failure with an angiotensin II receptor antagonist and beraprost” (Toray Industries, Inc., priority 2003, dated 2017)
Where a name gives a salt, the structure may show the parent alone.

Legend:
[1] = tested on: WKY rats with nephritis induced by rabbit anti-rat glomerular basement membrane antiserum; assay: nephritis-induced renal failure model in rats, mortality / survival rate; assay type: in vivo; settings: Example 7, FIG. 2; candesartan cilexetil 10 mg/kg OAD and/or beraprost sodium 100 μg/kg BID; compared with the control group
Method: To 9-week old WKY rats, rabbit anti-rat glomerular basement membrane antiserum was administered to induce nephritis. At two weeks after administering the antiserum, the animals were divided into the following 4 groups and medication was started. • 1) Control Group: 0.5% CMC(OAD)+distilled water (BID), n=11 • 2) Candesartan Group (Comparative Example): candesartan cilexetil 10 mg/kg (OAD)+distilled water (BID), n=11 • 3) BPS Group (Comparative Example): 0.5% CMC(OAD)+beraprost sodium 100 μg/kg (BID), n=11 • 4) Candesartan+BPS Group (this disclosure): candesartan cilexetil 10 mg/kg (OAD)+beraprost sodium 100 μg/kg (BID), n=12

[2] = tested on: glomerular nephritis model in rats; settings: Kidney Int 1998, 53(5) 1314-20; cited from earlier work
[3] = tested on: patients suffering from diabetic nephropathy; settings: Nephron 2002, 92(4): 788-96; cited from earlier work
[4] = tested on: WKY rats with nephritis induced by rabbit anti-rat glomerular basement membrane antiserum (renal failure stage); assay: nephritis-induced renal failure model in rats, blood creatinine level; assay type: in vivo; settings: for effect to suppress the progress of nephritis (raise in the blood creatinine level) / effect to suppress the progress of nephropathy (blood creatinine level): Example 1, FIG. 1; for effect to suppress the progress of nephritis (raise in the blood creatinine level): beraprost sodium 100 μg/kg BID and/or candesartan cilexetil 10 mg/kg OAD; for effect to suppress the progress of nephritis (raise in the blood creatinine level) / effect to suppress the progress of renal failure: compared with the control group; for effect to suppress the progress of nephropathy (blood creatinine level): increased dosage alone: beraprost sodium 300 μg/kg BID or candesartan cilexetil 30 mg/kg OAD, compared with BPS100+candesartan10 group; for blood creatinine level at 7 weeks after induction: started 2 weeks after antiserum
Method: After the start of the medication, blood was collected at one week intervals, and blood creatinine level was measured. To 9-week old WKY rats, rabbit anti-rat glomerular basement membrane antiserum was administered to induce nephritis. […] To 9-week old WKY rats, rabbit anti-rat glomerular basement membrane antiserum was administered to induce nephritis. […] At six weeks after the induction, blood creatinine level was measured to assess the progress of renal failure. […] To 9-week old WKY rats, rabbit anti-rat glomerular basement membrane antiserum was administered to induce nephritis. […] After the start of the medication, blood was collected at one week intervals, and blood creatinine level was measured. The data were plotted taking the reciprocal of the blood creatinine level measured for five weeks after the start of the medication along the ordinate and taking the time along the abscissa, and the slope of the regression line was defined as the rate of progress of renal failure of each animal. To 9-week old WKY rats, rabbit anti-rat glomerular basement membrane antiserum was administered to induce nephritis. […] After the start of the medication, blood was collected at one week intervals, and blood creatinine level was measured. The data were plotted taking the reciprocal of the blood creatinine level measured for five weeks after the start of the medication along the ordinate and taking the time along the abscissa, and the slope of the asymptote was defined as the rate of progress of renal failure of each animal. To 9-week old WKY rats, rabbit anti-rat glomerular basement membrane antiserum was administered to induce nephritis. […] After the start of the medication, blood was collected at one week intervals, and blood creatinine level was measured. The data were plotted taking the reciprocal of the blood creatinine level measured for six weeks after the start of the medication along the ordinate and taking the time along the abscissa, and the slope of the asymptote was defined as the rate of progress of renal failure of each animal.

[5] = tested on: patients suffering from diabetic nephropathy; settings: N Engl J Med 2001, 345(12): 861-9; cited from earlier work
[6] = tested on: diabetic nephritis induced by streptozotocin in rats; settings: J Hypertens Suppl 1993; 11 Suppl 5: S208-9; cited from earlier work
[7] = tested on: renal dysfunction induced by uninephrectomy and by loading high sodium and high protein; settings: Am J Hypertens 1997 10: 209-16; cited from earlier work
[8] = tested on: diabetes mellitus model in rats; settings: each drug individually or in combination, versus control group; Am J Hypertens 1997 10: 202-208; cited from earlier work
[9] = tested on: anti-Thyl-induced nephritis model; settings: Am J Pathol 1993; 142(2): 441-50; cited from earlier work
diabetic nephropathy = settings: compared with blood pressure control by a calcium antagonist; N Engl J Med 2001; 345(12): 851-60; cited from earlier work
[10] = Example 2, during medication, telmisartan 40 mg/kg OAD and/or beraprost sodium 100 μg/kg BID
[11] = Example 2, telmisartan 40 mg/kg OAD and/or beraprost sodium 100 μg/kg BID, mean ± S.E.
[12] = Example 3, losartan 30 mg/kg BID and/or beraprost sodium 100 μg/kg BID
[13] = Example 3, losartan 30 mg/kg BID and/or beraprost sodium 100 μg/kg BID, mean ± S.E.
[14] = Example 4, enalapril maleate 10 mg/kg OAD and/or beraprost sodium 100 μg/kg BID
[15] = Example 4, enalapril maleate 10 mg/kg OAD and/or beraprost sodium 100 μg/kg BID, mean ± S.E.
[16] = Example 4, slope of regression line of reciprocal blood creatinine over five weeks of medication, enalapril maleate 10 mg/kg OAD and/or beraprost sodium 100 μg/kg BID, mean ± S.E.
[17] = Example 5, lisinopril 10 mg/kg OAD and/or beraprost sodium 100 μg/kg BID
[18] = Example 5, lisinopril 10 mg/kg OAD and/or beraprost sodium 100 μg/kg BID, mean ± S.E.
[19] = Example 5, slope of reciprocal blood creatinine over five weeks of medication, lisinopril 10 mg/kg OAD and/or beraprost sodium 100 μg/kg BID, mean ± S.E.
[20] = Example 6, perindopril erbumine 10 mg/kg OAD and/or beraprost sodium 100 μg/kg BID
[21] = Example 6, slope of reciprocal blood creatinine over six weeks of medication, perindopril erbumine 10 mg/kg OAD and/or beraprost sodium 100 μg/kg BID

CC#CCC(C)[C@H](O)/C=C/[C@@H]1[C@H]2c3cccc(CCCC(=O)[O-])c3O[C@H]2C[C@H]1O.[Na+] (stereo partly drawn) [BPS, beraprost sodium]
mortality rate / survival rate [1]: no difference | urinary protein [2]: decreases urinary protein | urinary protein [3]: decreases urinary protein | effect to suppress the progress of nephritis (raise in the blood creatinine level) [4]: almost no difference | effect to suppress the progress of nephropathy (blood creatinine level) [4]: smaller than that observed in BPS100+candesartan10 group | effect to suppress the progress of renal failure [4, 10]: almost no difference | blood creatinine level at 7 weeks after induction [4, 11]: 1.56 ± 0.76 mg/dL | effect to suppress the progress of renal failure [4, 12]: no difference | blood creatinine level at 6 weeks after induction [4, 13]: 0.93 ± 0.18 mg/dL | effect to suppress the progress of renal failure [4, 14]: no difference | blood creatinine level at 6 weeks after induction [4, 15]: 0.93 ± 0.18 mg/dL | rate of progress of renal failure [4, 16]: 0.32 ± 0.04 dL/mg × week | effect to suppress the progress of renal failure [4, 17]: almost no difference | blood creatinine level at 6 weeks after induction [4, 18]: 1.49 ± 0.59 mg/dL | rate of progress of renal failure [4, 19]: 0.37 ± 0.07 dL/mg × week | blood creatinine level at 6 weeks after induction [4, 20]: 0.93 ± 0.18 mg/dL | effect to suppress the progress of renal failure [4, 20]: tendency to suppress the progress of renal failure | rate of progress of renal failure [4, 21]: 0.29 ± 0.03 dL/mg × week

CCOC(=O)[C@H](CCc1ccccc1)N[C@@H](C)C(=O)N1CCC[C@H]1C(=O)O [Enalapril, enalapril maleate]
effect to suppress the progress of renal failure [4, 14]: no difference | blood creatinine level at 6 weeks after induction [4, 15]: 1.83 ± 0.44 mg/dL | rate of progress of renal failure [4, 16]: 0.41 ± 0.04 dL/mg × week

NCCCC[C@H](N[C@@H](CCc1ccccc1)C(=O)O)C(=O)N1CCC[C@H]1C(=O)O [Lisinopril, lisinopril]
effect to suppress the progress of renal failure [4, 17]: almost no difference | blood creatinine level at 6 weeks after induction [4, 18]: 1.20 ± 0.34 mg/dL | rate of progress of renal failure [4, 19]: 0.39 ± 0.08 dL/mg × week

CCCCc1nc(Cl)c(CO)n1Cc1ccc(-c2ccccc2-c2nn[nH]n2)cc1 [Losartan, losartan]
risk-lowering rate (doubling time of creatinine, dialysis, complicated risk of death) [5]: 16.1% | effect to suppress the progress of renal failure [4, 12]: no difference | blood creatinine level at 6 weeks after induction [4, 13]: 1.94 ± 0.61 mg/dL

CCC[C@H](N[C@@H](C)C(=O)N1[C@H](C(=O)O)C[C@@H]2CCCC[C@@H]21)C(=O)OCC [Perindopril, perindopril erbumine]
blood creatinine level at 6 weeks after induction [4, 20]: 1.09 ± 0.42 mg/dL | effect to suppress the progress of renal failure [4, 20]: tendency to suppress the progress of renal failure | rate of progress of renal failure [4, 21]: 0.30 ± 0.05 dL/mg × week

CCCc1nc2c(C)cc(-c3nc4ccccc4n3C)cc2n1Cc1ccc(-c2ccccc2C(=O)O)cc1 [Telmisartan, telmisartan]
effect to suppress the progress of renal failure [4, 10]: suppressed | blood creatinine level at 7 weeks after induction [4, 11]: 0.93 ± 0.43 mg/dL | blood creatinine level at 8 weeks after induction (1 week after the end of the medication) [4, 11]: 1.18 ± 0.80 mg/dL | progress of renal failure / blood creatinine level at one week after the end of the medication ([4]; Example 2, telmisartan 40 mg/kg OAD with or without beraprost sodium 100 μg/kg BID): renal failure was progressed

CCOc1nc2cccc(C(=O)OC(C)OC(=O)OC3CCCCC3)c2n1Cc1ccc(-c2ccccc2-c2nn[nH]n2)cc1 (stereo not drawn) [candesartan, candesartan cilexetil]
mortality rate / survival rate [1]: no difference | effect to suppress the progress of nephritis (raise in the blood creatinine level) [4]: almost no difference | effect to suppress the progress of nephropathy (blood creatinine level) [4]: smaller than that observed in BPS100+candesartan10 group

CCC#CC[C@H](C)[C@H](O)C#C[C@@H]1[C@H]2C/C(=C/COCC(=O)O)C[C@H]2C[C@H]1O [cicaprost]
suppression of diabetic nephritis [6]: suppressed | suppression of renal dysfunction [7]: suppressed | renal function parameters such as urinary protein, damage of renal tissue [8]: less severe

CC#CCC(C)[C@H](O)/C=C/[C@@H]1[C@H]2C/C(=C/CCCC(=O)O)C[C@H]2C[C@H]1O (stereo partly drawn) [iloprost]
urinary protein [9]: decreased urinary protein

CCCCC1=NC2(CCCC2)C(=O)N1Cc1ccc(-c2ccccc2-c2nnn[nH]2)cc1 [irbesartan]
effect of suppressing the progress of diabetic nephropathy (diabetic nephropathy): superior
